From patent publication US7998995B2 (Exelixis Patent Company LLC, priority 2006, dated 2011)
pEC50: −log10 of the molar value.

Experiments:
LXR = system: T1, LXR; experiment: Measured EC50 or IC50 for LXR (LXRα and/or LXRβ; assay and subtype not given); conditions: IC50 or EC50 class, subtype not specified
T1 construct: fused on or other part: GST fused to the LBD in the FRET assay
Protocol: (§1) Measured EC50 or IC50 for LXR, and FXR for Compounds of the Invention
(§2) LXR and FXR activities for various compounds of the invention are presented in the following table; those compounds with EC50 or IC50 values <10 μM for at least one of LXRα, LXRβ or FXR are considered to be active. In the following Table, IC50 or EC50 data is represented as follows: A<1 μM, B=1-10 μm, and C>10 μM.

FXR = molecular target: T2, FXR (Homo sapiens, UniProt Q96RI1); experiment: Measured EC50 or IC50 for FXR (assay not given); conditions: IC50 or EC50 class; assay not specified
T2 sequence (Q96RI1 1-472 isoform Q96RI1-2): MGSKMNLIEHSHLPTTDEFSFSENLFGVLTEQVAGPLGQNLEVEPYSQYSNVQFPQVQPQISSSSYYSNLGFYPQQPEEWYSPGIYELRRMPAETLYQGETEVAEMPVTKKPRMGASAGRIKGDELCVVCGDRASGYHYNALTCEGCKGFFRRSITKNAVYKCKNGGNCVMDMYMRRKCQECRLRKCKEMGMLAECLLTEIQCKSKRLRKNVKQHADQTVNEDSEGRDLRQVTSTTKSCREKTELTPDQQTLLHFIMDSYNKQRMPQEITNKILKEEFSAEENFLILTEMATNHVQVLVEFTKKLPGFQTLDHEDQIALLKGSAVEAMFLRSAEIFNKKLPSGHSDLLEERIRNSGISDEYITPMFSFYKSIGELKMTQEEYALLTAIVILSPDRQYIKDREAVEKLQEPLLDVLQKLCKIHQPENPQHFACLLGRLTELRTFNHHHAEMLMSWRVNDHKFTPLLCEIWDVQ
Protocol: as §1, §2

pEC50 (LXR)	pEC50 (FXR)	SMILES
> 6.00	5.00 to 6.00	O=C(O)c1ccc(-c2ccc(OCc3cc(C(F)(F)F)nn3-c3c(Cl)cccc3Cl)cc2)c(Cl)c1 [Example 946, 2-chloro-4′-({[1-(2,6-dichlorophenyl)-3-(trifluoromethyl)-1H-pyrazol-5-yl]methyl}oxy)biphenyl-4-carboxylic acid]
> 6.00	< 5.00	Cc1cc(-c2cccc(S(C)(=O)=O)c2)ccc1-n1nc(C(C)(C)O)c(Cl)c1-c1c(F)cccc1Cl [Example 968, 2-{4-chloro-5-(2-chloro-6-fluorophenyl)-1-[3-methyl-3′-(methylsulfonyl)biphenyl-4-yl]-1H-pyrazol-3-yl}propan-2-ol]
5.00 to 6.00	> 6.00	CC(C)c1cc(COc2ccc(-c3ccc(C(=O)O)cc3Cl)cc2)n(-c2c(Cl)cccc2Cl)n1 [Example 907, 2-chloro-4′-({[1-(2,6-dichlorophenyl)-3-(1-methylethyl)-1H-pyrazol-5-yl]methyl}oxy)biphenyl-4-carboxylic acid]
5.00 to 6.00	> 6.00	Cc1cc(-c2cc(C(C)(C)O)nn2-c2c(Cl)cccc2Cl)ccc1-c1cccc(S(C)(=O)=O)c1 [Example 961, 2-{1-(2,6-dichlorophenyl)-5-[2-methyl-3′-(methylsulfonyl)biphenyl-4-yl]-1H-pyrazol-3-yl}propan-2-ol]
> 6.00	> 6.00	CC(C)(O)c1cc(-c2ccc(-c3cccc(S(C)(=O)=O)c3)cc2Cl)n(-c2c(Cl)cccc2Cl)n1 [Example 958, 2-{5-[3-chloro-3′-(methylsulfonyl)biphenyl-4-yl]-1-(2,6-dichlorophenyl)-1H-pyrazol-3-yl}propan-2-ol]
5.00 to 6.00	5.00 to 6.00	Cc1cc(-n2nc(C(C)(C)O)cc2-c2c(F)cccc2Cl)ccc1-c1cccc(S(C)(=O)=O)c1 [Example 969, 2-{5-(2-chloro-6-fluorophenyl)-1-[2-methyl-3′-(methylsulfonyl)biphenyl-4-yl]-1H-pyrazol-3-yl}propan-2-ol]
5.00 to 6.00	5.00 to 6.00	Cc1cc(-n2nc(C(C)(C)O)c(Cl)c2-c2c(Cl)cccc2Cl)ccc1-c1cccc(S(C)(=O)=O)c1 [Example 972, 2-{4-chloro-5-(2,6-dichlorophenyl)-1-[2-methyl-3′-(methylsulfonyl)biphenyl-4-yl]-1H-pyrazol-3-yl}propan-2-ol]
> 6.00	5.00 to 6.00	CC(C)(O)c1cc(-c2ccc(-c3cccc(S(C)(=O)=O)c3)s2)n(-c2c(F)cccc2F)n1 [Example 948, 2-[1-(2,6-difluorophenyl)-5-{5-[3-(methylsulfonyl)phenyl]-2-thienyl}-1H-pyrazol-3-yl]propan-2-ol]
> 6.00	5.00 to 6.00	CC(C)(O)c1nn(-c2c(F)cccc2Cl)c(-c2ccc(-c3cccc(S(C)(=O)=O)c3)s2)c1Cl [Example 954, 2-[4-chloro-1-(2-chloro-6-fluorophenyl)-5-{5-[3-(methylsulfonyl)phenyl]-2-thienyl}-1H-pyrazol-3-yl]propan-2-ol]
> 6.00	5.00 to 6.00	CC(C)(O)c1cc(-c2ccc(-c3cccc(S(C)(=O)=O)c3)s2)n(-c2c(Cl)cncc2Cl)n1 [Example 955, 2-[1-(3,5-dichloropyridin-4-yl)-5-{5-[3-(methylsulfonyl)phenyl]-2-thienyl}-1H-pyrazol-3-yl]propan-2-ol]
> 6.00	5.00 to 6.00	Cc1cc(-c2cccc(S(C)(=O)=O)c2)ccc1-n1nc(C(C)(C)O)c(Cl)c1-c1c(Cl)cccc1Cl [Example 967, 2-{4-chloro-5-(2,6-dichlorophenyl)-1-[3-methyl-3′-(methylsulfonyl)biphenyl-4-yl]-1H-pyrazol-3-yl}propan-2-ol]
> 6.00	> 6.00	CC(C)(O)c1nn(-c2c(Cl)cccc2Cl)c(-c2ccc(-c3cccc(S(C)(=O)=O)c3)cc2Cl)c1Cl [Example 959, 2-{4-chloro-5-[3-chloro-3′-(methysulfonyl)biphenyl-4-yl]-1-(2,6-dichlorophenyl)-1H-pyrazol-3-yl}propan-2-ol]
> 6.00	5.00 to 6.00	CC(C)(O)c1cc(-c2ccc(-c3cccc(S(C)(=O)=O)c3)s2)n(-c2c(Cl)cccc2Cl)n1 [Example 949, 2-[1-(2,6-dichlorophenyl)-5-{5-[3-(methylsulfonyl)phenyl]-2-thienyl}-1H-pyrazol-3-yl]propan-2-ol]
> 6.00	> 6.00	Cc1cc(-c2cccc(S(C)(=O)=O)c2)ccc1-c1cc(C(C)(C)O)nn1-c1c(Cl)cccc1Cl [Example 960, 2-{1-(2,6-dichlorophenyl)-5-[3-methyl-3′-(methylsulfonyl)biphenyl-4-yl]-1H-pyrazol-3-yl}propan-2-ol]
> 6.00	5.00 to 6.00	Cc1cccc(Cl)c1-n1nc(C(C)(C)O)cc1-c1ccc(-c2cccc(S(C)(=O)=O)c2)s1 [Example 952, 2-[1-(2-chloro-6-methylphenyl)-5-{5-[3-(methylsulfonyl)phenyl]-2-thienyl}-1H-pyrazol-3-yl]propan-2-ol]
> 6.00	5.00 to 6.00	Cc1cc(-c2cccc(S(C)(=O)=O)c2)ccc1-n1nc(C(C)(C)O)cc1-c1c(Cl)cccc1Cl [Example 966, 2-{5-(2,6-dichlorophenyl)-1-[3-methyl-3′-(methylsulfonyl)biphenyl-4-yl]-1H-pyrazol-3-yl}propan-2-ol]
> 6.00	5.00 to 6.00	CC(C)(O)c1cc(-c2c(F)cccc2Cl)n(-c2ccc(-c3cccc(S(C)(=O)=O)c3)cc2)n1 [Example 962, 2-{5-(2-chloro-6-fluorophenyl)-1-[3′-(methylsulfonyl)biphenyl-4-yl]-1H-pyrazol-3-yl}propan-2-ol]
< 5.00	5.00 to 6.00	O=C(O)c1ccc(-c2ccc(OCc3cc(C(F)(F)F)nn3-c3c(Cl)cccc3Cl)cc2)cc1 [Example 921, 4′-({[1-(2,6-dichlorophenyl)-3-(trifluoromethyl)-1H-pyrazol-5-yl]methyl}oxy)biphenyl-4-carboxylic acid]
> 6.00	5.00 to 6.00	CC(C)(O)c1cc(-c2c(Cl)cccc2Cl)n(-c2ccc(-c3cccc(S(C)(=O)=O)c3)cc2Cl)n1 [Example 965, 2-{1-[3-chloro-3′-(methylsulfonyl)biphenyl-4-yl]-5-(2,6-dichlorophenyl)-1H-pyrazol-3-yl}propan-2-ol]
